# Results as given in patent US20260216168A1, “MODULATION OF PD-1 SIGNALING FOR TREATMENT OF DISEASES” (Wuhan University, priority 2023, published 2026).
# “Also recorded” adds a separate entry of the source.
# How the values were obtained:
# [1] = system: MC38 cells; experiment: PC, IL-2 and anti-PD-1 therapy in C57BL/6j mice bearing MC38 tumors; type: in vivo; conditions: PC 5 mg/kg, IL-2 50000 IU per mouse, anti-PD-1 100 μg per mouse, i.p.
# Procedure: (§1) C57BL/6j mice were subcutaneously injected with 5×10^5 of MC38 or B16F10 cells. On day 3 (MC38) or 5 (B16F10) after tumor cell implantation, mice were intraperitoneally injected with control or PC (5 mg/kg/day). Tumor sizes were measured every two days by caliper. Tumor-bearing mice were euthanized on day 13 (MC38) or day 15 (B16F10). Tumor weights were measured by Analytical Balance. […] Data were analyzed using a student's unpaired t-test with GraphPad Prism 8. • (D) Effects of PC on the level of γc in TILs. TILs were isolated from the MC38 tumor tissues of FIG. 7C. TILs were stained with the indicated antibodies and analyzed by flow cytometry. […] Data were analyzed using a student's unpaired t-test with GraphPad Prism 8. […] TILs were isolated from the MC38 tumor tissues of FIG. 7C. TILs were stained with the indicated antibodies and analyzed by flow cytometry. […] C57BL/6j mice were subcutaneously injected with MC38 cells (5×10^5). […] Tumor sizes were measured every two days by caliper from day 5. […] C57BL/6j mice were subcutaneously injected with MC38 cells (5×10^5). […] Mice were sacrificed when the tumor size is bigger than 15 mm of the mean tumor diameter, tumor volume exceeded 2000 mm^3, or tumor had ulcers with diameter reached 10 mm. Statistical analysis was performed using the GraphPad Prism 8 software, n=8. Kaplan-Meier survival curves and corresponding log-rank (Mantel-Cox) tests were used to evaluate the statistical differences between groups in survival studies. There is a significant difference when the P<0.05.
# Tumor size and mouse survival were measured every two days from day 5.
# For survival studies, mice were sacrificed when the tumor size was bigger than 15 mm of the mean tumor diameter, tumor volume exceeded 2000 mm^3, or tumor had ulcers with a diameter reached 10 mm. Statistical analysis was performed using the GraphPad Prism 8 software. Kaplan-Meier survival curves and corresponding log-rank (Mantel-Cox) tests were used to evaluate the statistical differences between groups in survival studies. There is a significant difference when the P<0.05.
# [2] = biological target: T1, MARCH5 (Homo sapiens, UniProt Q9NX47); experiment: MARCH5 / γc-luciferase reporter system in co-transfected HEK293 cells (screen of FDA-approved drugs); type: cell-based
# T1 construct: expressed in transfected cells; host or cells: HEK293
# T1 sequence (Q9NX47 1-278): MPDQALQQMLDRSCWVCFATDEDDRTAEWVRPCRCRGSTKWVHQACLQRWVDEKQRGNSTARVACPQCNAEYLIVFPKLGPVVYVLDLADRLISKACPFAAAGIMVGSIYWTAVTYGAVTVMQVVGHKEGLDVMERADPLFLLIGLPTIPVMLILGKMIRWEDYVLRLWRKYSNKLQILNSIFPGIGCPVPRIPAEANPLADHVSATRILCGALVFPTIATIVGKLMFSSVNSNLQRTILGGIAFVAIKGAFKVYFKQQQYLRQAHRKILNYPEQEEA
# Description: Unfortunately, no pharmacological inhibitors of MARCH5 have been reported. We designed a reporter system in which HEK293 cells are co-transfected with two plasmids encoding MARCH5 and γc-luciferase fusion protein respectively. In this system, inhibition of MARCH5 by an inhibitor would result in increased luciferase activity in reporter assays.
# Using this system, we screened a collection of Food and Drug Administration-approved drugs and identified 10 compounds that increased luciferase activity to more than 1.5-folds (Table 1). […] Pitavastatin is a unique lipophilic statin and potent inhibitor of HMG-CoA reductase with a strong effect on lowering plasma total cholesterol and triacylglycerol. Pitavastatin has also been reported to have pleiotropic beneficial effects such as suppression of inflammation, regulation of angiogenesis and osteogenesis, improvement of endothelial function and arterial stiffness.
# [3] = system: MC38 colorectal carcinoma and B16F10 melanoma; experiment: Pitavastatin calcium (PC) therapy in C57BL/6j mice, MC38 and B16F10 tumor models; type: in vivo, mouse; conditions: PC alone 5 mg/kg/day i.p.; MC38 and B16F10 in C57BL/6j mice; listed as PC
# Procedure: C57BL/6j mice were subcutaneously injected with 5×10^5 of MC38 or B16F10 cells. On day 3 (MC38) or 5 (B16F10) after tumor cell implantation, mice were intraperitoneally injected with control or PC (5 mg/kg/day). Tumor sizes were measured every two days by caliper. Tumor-bearing mice were euthanized on day 13 (MC38) or day 15 (B16F10). Tumor weights were measured by Analytical Balance. […] Data were analyzed using a student's unpaired t-test with GraphPad Prism 8. • (D) Effects of PC on the level of γc in TILs. TILs were isolated from the MC38 tumor tissues of FIG. 7C. TILs were stained with the indicated antibodies and analyzed by flow cytometry. […] Data were analyzed using a student's unpaired t-test with GraphPad Prism 8. […] TILs were isolated from the MC38 tumor tissues of FIG. 7C. TILs were stained with the indicated antibodies and analyzed by flow cytometry. […] C57BL/6j mice were subcutaneously injected with MC38 cells (5×10^5). […] Tumor sizes were measured every two days by caliper from day 5. […]
# Pitavastatin calcium (PC) therapy in C57BL/6j mice: mice were intraperitoneally injected with control or PC (P129617, 5 mg/kg/day, dissolved in PBS, Aladdin) three (MC38 tumor) or five (B16F10 tumor) days after inoculation of tumor cells, and tumor sizes were measured every two days by caliper. […] TILs were analyzed by flow cytometry.
# [4] = system: γc; experiment: γc level by immunoblotting after PC treatment of T cells and T cell lines; type: cell-based; conditions: PC 0, 0.5, 1, 2 μM, 24 h; human and mouse CD8+ T, Jurkat, HPB-ALL, CTLL2 cells; listed as PC
# [5] = system: tumor-infiltrating lymphocytes; experiment: Flow cytometry of tumor-infiltrating lymphocytes from MC38 tumors after PC; type: in vivo, mouse
# Procedure: as §1
# Cells were subjected to stain with the indicated antibodies for 30 min in 4° C. The cells were analyzed and data were acquired with BD Fortessa X-20 and FACSDiva 7 software following the exemplified gating strategy for flow cytometry analysis. The data were processed using FlowJo software.
# Pitavastatin calcium (PC) therapy in C57BL/6j mice: mice were intraperitoneally injected with control or PC (P129617, 5 mg/kg/day, dissolved in PBS, Aladdin) three (MC38 tumor) or five (B16F10 tumor) days after inoculation of tumor cells, and tumor sizes were measured every two days by caliper. Tumor-bearing mice were euthanized on day 13 (MC38 tumor) or day 15 (B16F10 tumor). TILs were analyzed by flow cytometry.
# Tumor tissues were separated from the mice and cut into pieces. The tumor tissues were suspended with 2 ml of tumor digestion buffer (1×HBSS buffer with 5 mg/ml collagenase II and 0.1% DNaseI) and rotated for at 37° C. for 1 h. The cell suspension was filtered using a 70-μm filter to obtain single-cell suspension. […] Cells were analyzed and data were acquired with BD Fortessa X-20 and FACSDiva 7 software following the exemplified gating strategy for flow cytometry analysis. […]
# [6] = system: tumor; experiment: PC or rosuvastatin calcium alone or with IL-2 on tumor growth in mice; type: in vivo, mouse
# Description: We further tested the anti-tumor effects of PC in mouse MC38 colorectal carcinoma and B16F10 melanoma models.
# [7] = system: MARCH5-deficient Jurkat cells; experiment: γc level by immunoblotting in control or MARCH5-deficient Jurkat cells treated with PC; type: cell-based, human; conditions: PC 0, 0.5, 1 μM, 24 h, listed as PC
structure (smiles),measurement,setting,value
O=C(O)C[C@H](O)C[C@H](O)/C=C/c1c(C2CC2)nc2ccccc2c1-c1ccc(F)cc1 [Pitavastatin calcium],tumor suppression by IL-2 or IL-2 plus PD-1 blocking antibody when PC is added,[1],significantly improved the efficacy of anti-tumor immunotherapy in mice
same,overall survival of mice treated with IL-2 or IL-2 plus PD-1 blocking antibody when PC is added,[1]; listed as PC,significantly increased the efficacies; also recorded: promotes the survival rate of mice treated with IL-2 and PD-1 blockade
same,tumor suppression by IL-2 or IL-2 plus PD-1 blocking antibody when PC is added,[1]; listed as PC,significantly increased the efficacies; also recorded: potentiates the anti-tumor efficacy of IL-2 and PD-1 combination; also recorded: sensitized the anti-tumor effects of IL-2 as well as its combination with PD-1 blocking antibody
same,Rel. Luc. Act,"[2]; HEK293 cells co-transfected with MARCH5 and γc-luciferase fusion protein, increase = MARCH5 inhibition",2.06
same,luciferase activity in MARCH5-expressing versus control HEK293 cells,[2]; confirmative experiments,specifically increased the luciferase activity in MARCH5-expressing but not control HEK293 cells
same,tumor growth,[3],significantly suppressed tumor growth; also recorded: suppresses tumor growth; also recorded: inhibited tumor growth
same,level of γc (immunoblotting),[4],up-regulated the level of γc in a dose-dependent manner; also recorded: up-regulates the level of γc
same,level of γc in tumor-infiltrating lymphocytes,"[5]; MC38 tumors, PC 5 mg/kg/day i.p., listed as PC",higher level of γc; also recorded: up-regulated the level of γc in tumor-infiltrating lymphocytes
same,percentage of TIM3+ cells in infiltrated CD8+ T cells,"[5]; MC38 tumors, PC treatment",reduced the percentage of TIM3^+ cells
same,percentage of GzmB+ cells in infiltrated CD8+ T cells,"[5]; MC38 tumors, PC treatment, listed as PC",up-regulated the percentage of GzmB^+ cells; also recorded: increases tumor infiltrating CD8^+ cytotoxic T cells
same,"percentages of CD8+ T, NK, CD4+ T, Treg and B cells in tumor-infiltrating lymphocytes",[5]; after PC administration,did not show significant difference
same,synergistic effect with IL-2 on tumor suppression,"[6]; combined with IL-2, mice",has a synergistic effect
same,tumor growth,"[6]; statin administered alone, mice",suppressed tumor growth
same,"γc protein level, MARCH5 dependence",[7],did not further increase its protein level; also recorded: MARCH5-deficiency impairs PC-induced up-regulation of γc; also recorded: up-regulated the level of γc in a MARCH5-dependent manner
